These results are taken from ChEMBL document CHEMBL1157539, “Thousands of chemical starting points for antimalarial lead identification” (Nature, 2010).

The assay has as its system Plasmodium falciparum. Description: GSK_TCMDC: Inhibition of Plasmodium falciparum 3D7 in whole erythrocytes, using parasite LDH activity as an index of growth. The class given is functional, organism-based.

On to `Cc1nc(C)c(-c2ccc(Sc3ccc(Cl)cc3)cc2)c(O)c1Br`, for which the XC50 (Plasmodium falciparum, 3D7) is 138 nM.
Molecule `CON=Cc1ccn(-c2ccc(O)c3c2C[C@H]2C[C@H]4[C@H](N(C)C)C(O)=C(C(N)=O)C(=O)[C@@]4(O)C(O)=C2C3=O)c1` had an XC50 (Plasmodium falciparum, 3D7) of 773 nM.
For the molecule `Clc1ccc2c(NCCc3ccccc3)ccnc2c1`, the XC50 (Plasmodium falciparum, 3D7) was determined as 488 nM.
For the setting “Plasmodium falciparum, 3D7”, `COC(=O)c1ccc(NC(=O)c2ccc(CCN3CCC(c4nc(COCC(F)(F)F)c(-c5ccc(F)cc5)o4)CC3)cc2)cc1` returned an XC50 of 1040 nM.
Consider `COc1cc(NC(=O)/C=C/c2cc(F)cc(F)c2F)cc(OCCN2CCC3(CC2)OCCO3)c1`, for which the XC50 (Plasmodium falciparum, 3D7) was 269 nM.
On to `O=C(Nc1cccc(CN2CCCN(Cc3cccc(O)c3)CC2)c1)c1ccc(Cl)c(Cl)c1`, for which the XC50 (Plasmodium falciparum, 3D7) turned out to be 664 nM.
Regarding `CCCCOC(=O)c1ccc(NC(=O)Nc2ccc(Cn3ncc(N4CCCNCC4)c(Cl)c3=O)cc2)cc1`, under “Plasmodium falciparum, 3D7”, the XC50 amounted to 739 nM.
Still for that read-out and setting: the result for `CCOC(=O)NOC(C(=O)O)c1ccccc1` (configuration not stated) reads 189 nM; that for `CCOc1ccc(Br)cc1/C=C/C(=O)Nc1ccc2c(c1)C1CCC2N1C` (configuration not stated), 1050 nM.
For the molecule `CCN(CC)CCN(Cc1ccc(-c2ccc(C(F)(F)F)cc2)cc1)C(=O)Cn1cc(Cc2cnn(C)c2)c(=O)n2nc(-c3ccccc3)cc12`, the XC50 (Plasmodium falciparum, 3D7) came out at 730 nM.
The same measure, in the same setting: the result for `Cc1cc(N)nc2cc(CNCCc3ccccc3Br)ccc12` reads 129 nM.
Still for that read-out and setting: the result for `COc1ccc(CNCCc2cccs2)cc1-c1cccc(S(=O)(=O)NCCN2CCCC2)c1` reads 877 nM; that for `CC(C)COc1ccc(Cl)cc1Cc1ccc(-c2nc3cc(F)c(F)cc3[nH]2)o1`, 894 nM; that for `CON(C)C(=O)[C@@H](CCCCNC(=O)OCc1ccccc1)NC(=O)OC(C)(C)C`, 195 nM.
On the same count and under the same terms, the result for `CC(C)NCc1ccc(-c2cccc(-c3nc4ccccc4[nH]3)c2)cc1` reads 231 nM; that for `COc1ccc(C(=O)COc2cccc(/C=C/C(=O)O)c2)cc1OC`, 1320 nM.
For the setting “Plasmodium falciparum, 3D7”, `COc1cccc(CCc2c(CCNCCCCCCNCCc3ccccc3)ccc(OC)c2OC)c1` displayed an XC50 of 721 nM.
Still for that read-out and setting: the result for `CC(C)CNc1c2c(nc3cnn(-c4c5c(nc6cn[nH]c46)CCCC5)c13)CCCC2` reads 795 nM; that for `CS(=O)(=O)c1ccc(-n2nc(C(F)(F)F)cc2-c2ccc(C=NOCC(=O)O)o2)cc1`, 976 nM.
Still for that read-out and setting: the result for `CCOC(=O)c1ccc(NC(=O)Nc2ccc(Cn3ncc(N4CCCNCC4)c(Cl)c3=O)cc2)cc1` reads 443 nM; that for `CC(C)COc1ccc(C(O)C(CN2CCCCC2)c2ccccc2)cc1` (configuration not stated), 923 nM; that for `CC(C)Nc1nc(NCCc2c[nH]cn2)nc(Nc2ccc(Oc3ccccc3)cc2)n1`, 887 nM.
Consider `COc1ccc2[nH]ccc(=NN=Cc3ccccc3)c2c1`, for which the XC50 (Plasmodium falciparum, 3D7) stood at 110 nM.
With `Cc1cc(O)c(-c2ccc(OCc3ccc(Cl)cc3)cc2)c(C)n1`, the XC50 (Plasmodium falciparum, 3D7) turned out to be 732 nM.
The same measure, in the same setting: the result for `COc1cccc(Cc2cnc3nc(N)nc(N)c3c2C)c1` reads 173 nM.
On the same count and under the same terms, the result for `CC[C@H]1CN2CC[C@H]1C[C@H]2[C@H](O)c1cc(-c2ccc(C)cc2)nc2ccc(OC)cc12` reads 109 nM.
Same read-out and setting: the result for `Cc1cc(NCCC(=O)NCCOc2ccccc2)nc(NCCOc2ccccc2)n1` reads 867 nM.
`Cc1cc(C(=O)CN2C(=O)NC3(CCCc4ccccc43)C2=O)c(C)n1Cc1ccco1` (configuration not stated): the XC50 (Plasmodium falciparum, 3D7) worked out at 1100 nM.
`COc1ccc(CNCc2ccc(-c3cccc(-c4nc5cccc(C)c5[nH]4)c3)cc2)cc1` came in with an XC50 (Plasmodium falciparum, 3D7) of 130 nM.
For the setting “Plasmodium falciparum, 3D7”, `CC(NC(C)(C)C)C(O)c1ccc(Cl)c(C(F)(F)F)c1` (configuration not stated) came in with an XC50 of 742 nM.
In turn, `CN(CCCc1c[nH]c2ccccc12)CC1CCN(C(=O)/C=C/c2ccc(Cl)c(Cl)c2)CC1` yielded an XC50 (Plasmodium falciparum, 3D7) of 747 nM.
The same measure, in the same setting: the result for `c1ccc(COc2ccnc(NCCCOc3cccc(CN4CCCCC4)c3)c2)cc1` reads 994 nM; that for `CC(=O)Nc1ccc(C(=O)NC2CCN(c3ccnc4cc(Cl)ccc34)C2)cc1` (configuration not stated), 806 nM; that for `COc1cccc(-c2ccc3c(-c4cccc(S(C)(=O)=O)c4)cnc(N)c3c2)c1`, 874 nM.
Under “Plasmodium falciparum, 3D7”, `CO/C=C(/C(=O)OC)c1ccccc1Oc1cc(Oc2ccccc2C#N)ncn1` [AZOXYSTROBIN] yielded an XC50 of 40.5 nM.
The same measure, in the same setting: the result for `COc1ccc(CCN(C)CCCN2CCC(NC(=O)c3cccc4c(=O)c5ccccc5sc34)CC2)cc1OC` reads 786 nM.
Molecule `Cc1nccn1CCNC(=O)CN1CCC2(CCC1=O)CC(=O)c1ccccc1O2` (configuration not stated) returned an XC50 (Plasmodium falciparum, 3D7) of 802 nM.
In turn, `Cc1cccc(S(=O)(=O)Nc2cccc(CCN3CCC(N4CCCCC4)CC3)c2)c1` gave an XC50 (Plasmodium falciparum, 3D7) of 1330 nM.
For `O=C(Nc1ccc([N+](=O)[O-])cc1)Nc1nc2ccc(Cl)cc2s1`, where the note is “Plasmodium falciparum, 3D7”, the XC50 came to 837 nM.
In turn, `CC(C)CNC(=O)c1cncc(-c2ccc(CNC3Cc4ccccc4C3)cc2)c1` came in with an XC50 (Plasmodium falciparum, 3D7) of 698 nM.
Same read-out and setting: the result for `O=C(/C=C/c1ccccc1F)NC1CCC(CCN2CCc3ccc(-c4cccnc4)cc3CC2)CC1` (configuration not stated) reads 900 nM; that for `O=C(c1cc(C(=O)NCc2ccc(Cl)cc2)c(=O)n(Cc2ccc(Cl)cc2)c1)c1cc(F)ccc1O`, 949 nM; that for `Nc1nc2c(ncn2COC2COP(=O)(O)OC2)c(=O)[nH]1` (configuration not stated), 454 nM.
Same read-out and setting: the result for `Cc1cc(NCCc2ccccc2)nc(NC(=N)Nc2cccc(F)c2)n1` reads 899 nM; that for `Cc1ccc(S(=O)(=O)NC(=N)NC(N)=O)cc1`, 794 nM; that for `O=C(NCCCCN1CCC(c2ccc(OC(F)(F)F)cc2)CC1)c1ccc(NC(=O)c2ccc(Cl)cc2)cc1`, 629 nM.
Still for that read-out and setting: the result for `C/C=C1\CN2CC[C@H]1C[C@H]2[C@H](O)c1ccnc2ccc(O)cc12` reads 601 nM; that for `Cc1[nH]c(C)c(-c2ccc(OCc3cc(F)cc(F)c3)nc2)c(=O)c1Br`, 103 nM; that for `O=C(CC1NC(=O)c2ccccc21)Nc1ccc(-c2cccc(-c3nc4cc(C(F)(F)F)ccc4[nH]3)c2)cc1` (configuration not stated), 958 nM.
`COc1ccc(Cn2c(Nc3cccc(C(F)(F)F)c3)nc3cc(C(=O)NCCCN(C)C)ccc32)cc1Cl`: the XC50 (Plasmodium falciparum, 3D7) came out at 913 nM.
In turn, `O=C(Nc1ccc(Cl)cc1)c1cccc(S(=O)(=O)NC2CCN(CC3CCCCC3)CC2)c1` yielded an XC50 (Plasmodium falciparum, 3D7) of 722 nM.
As to `CCOC(=O)c1ccc(-n2c(C)cc(C=C3SC(=Nc4ccccc4)N(C4CCCC4)C3=O)c2C)cc1`, for the setting “Plasmodium falciparum, 3D7”, the XC50 is 1170 nM.
Same read-out and setting: the result for `COc1ccc(N2CCN(C(CNC(=O)C3CCCCC3)c3ccc4c(c3)OCO4)CC2)cc1` (configuration not stated) reads 566 nM.
`COc1ccc(-c2ccc3c(-c4ccc(F)cc4)cnc(N)c3c2)cn1` showed an XC50 (Plasmodium falciparum, 3D7) of 388 nM.
Same read-out and setting: the result for `N#Cc1cnc(Nc2ccc(Oc3ccccc3)cc2)nc1Nc1cccc(S(N)(=O)=O)c1` reads 555 nM.
Molecule `CS(=O)(=O)c1cccc(-c2cnc3[nH]cc(-c4ccc(CCC(=O)O)cc4)c3c2)c1` gave an XC50 (Plasmodium falciparum, 3D7) of 634 nM.
On the same count and under the same terms, the result for `c1cc(CN2CCN(c3ccncc3)CC2)cc(-c2ccc(-c3nc4ccccc4[nH]3)s2)c1` reads 148 nM; that for `COc1ccc(-c2cnc(NCc3ccccc3)nc2)cc1CNC1CCN(C)CC1`, 782 nM; that for `O=C(Nc1ccc(Cl)cc1C(=O)Nc1cccc(F)c1)c1ccc([N+](=O)[O-])cc1`, 365 nM.
`COc1c(OC)c(OC)c2ccccc2c1CNCCCCCCNCc1c(OC)c(OC)c(OC)c2ccccc12` displayed an XC50 (Plasmodium falciparum, 3D7) of 759 nM.
Take `CC(CN1CCN(C)CC1)C(=O)Nc1cccc(-c2ccc(-c3nc4cc(C(F)(F)F)ccc4[nH]3)cc2)c1` (configuration not stated): the XC50 (Plasmodium falciparum, 3D7) was 607 nM.
Still for that read-out and setting: the result for `Cc1cccc2nc(-c3ccc(-c4cccc(CN5CCCC5CN)c4)s3)[nH]c12` (configuration not stated) reads 867 nM.
In turn, `O=C(NCC1CC1)C1CCN(C(c2ccccc2)c2cc(F)cc(F)c2)CC1` (configuration not stated) yielded an XC50 (Plasmodium falciparum, 3D7) of 380 nM.
In turn, `N=c1ccn(CC(=NO)c2ccc(Cl)c(Cl)c2)cc1` had an XC50 (Plasmodium falciparum, 3D7) of 943 nM.
On the same count and under the same terms, the result for `Cc1ccc(NC(=O)c2cc([N+](=O)[O-])ccc2NCc2cccnc2)cc1Cl` reads 1120 nM; that for `CN(c1ccccc1C(=O)Nc1ccccc1Oc1ccccc1)S(=O)(=O)c1ccccc1`, 1150 nM; that for `CC(C)=CCN1CCC(C(=O)Nc2ccc(-c3nc4ccccc4[nH]3)cc2)CC1`, 908 nM.
The same measure, in the same setting: the result for `N#Cc1ccc(N/C(=N\c2ccc(-c3ccccc3)cc2)NC2CCCc3ccccc32)c(O)c1` (configuration not stated) reads 776 nM.
On to `Cc1noc(C)c1-c1cccc(CNCc2ccc(-c3ccc(-c4nc5cccc(C)c5[nH]4)cc3)cc2)c1`, for which, under “Plasmodium falciparum, 3D7”, the XC50 came to 239 nM.
In turn, `CCN(CC)CCN(Cc1ccc(-c2ccc(C(F)(F)F)cc2)cc1)C(=O)Cn1c(CCc2cccc(F)c2F)nc(=O)c2ccc(F)cc21` returned an XC50 (Plasmodium falciparum, 3D7) of 360 nM.
With `O=C(Nc1ccc(-c2ccc(-c3nc4cc(C(F)(F)F)ccc4[nH]3)s2)cc1)c1c[nH]cn1`, the XC50 (Plasmodium falciparum, 3D7) came to 670 nM.
The molecule `COc1ccc(-c2nc(NC(=O)CS(=O)(=O)c3ccc(OC)cc3)sc2C)cc1` gave an XC50 (Plasmodium falciparum, 3D7) of 302 nM.
On the same count and under the same terms, the result for `CCCCCSc1cc(O)c(C(CNC)C(C)C)cc1OC` (configuration not stated) reads 163 nM; that for `COc1cc2nc(NCCn3cccn3)nc(NCCc3ccccc3)c2cc1OC`, 281 nM.
Under “Plasmodium falciparum, 3D7”, `Nc1nc(N)c2c(Cc3ccccc3)cccc2n1` showed an XC50 of 828 nM.
For `Cc1cc(C2CCN(CCCCNC(=O)c3ccc(-c4ccc(C(F)(F)F)cc4)cc3)CC2)c(C)cc1OCC#N`, the XC50 (Plasmodium falciparum, 3D7) was 1010 nM.
In turn, `CN(C)Cc1cccc(CNC(=O)c2sccc2OCc2ccc(Cl)cc2)c1` yielded an XC50 (Plasmodium falciparum, 3D7) of 835 nM.
On the same count and under the same terms, the result for `NC(=O)c1cnc2cc(-c3ccncc3)cc(Nc3ccc(NC(=O)C4CCCCC4)cc3)c2c1` reads 232 nM; that for `Cc1nn(-c2ccccc2)c2c1C(c1ccc(C(C)C)cc1)N1C(=N2)N(Cc2ccccc2)c2ccccc21` (configuration not stated), 776 nM.
As to `COc1ccc(C=CC(=O)NC2CCC(CN3CCC(c4c[nH]c5ccccc45)CC3)CC2)cc1` (configuration not stated), the XC50 is 807 nM. For the setting “Plasmodium falciparum, 3D7”, the XC50 was determined as 782 nM.
In turn, `COc1cc2nc(NCCC(C)C)n3nc(-c4ccccc4)nc3c2cc1OC` showed an XC50 (Plasmodium falciparum, 3D7) of 417 nM.
Same read-out and setting: the result for `O=C(C=Cc1ccc(Cl)c(Cl)c1)NCCCCCN1CCCC(CCCNS(=O)(=O)c2cccc(C(F)(F)F)c2)C1` (configuration not stated) reads 962 nM; that for `Oc1ccc2[nH]cc(C3CCN(CCC(c4ccccc4)c4ccccc4)CC3)c2c1`, 994 nM; that for `O=C(Nc1ccc2c(c1)CCC2)c1ccc(CN2CCCN(Cc3cccc(O)c3)CC2)cc1`, 894 nM.
Under “Plasmodium falciparum, 3D7”, `O=c1cc(NCCCNCc2ccc(Cl)c(Cl)c2)[nH]c2cc(Cl)ccc12` showed an XC50 of 925 nM.
Still for that read-out and setting: the result for `COc1cc(CNCCCCCCNCc2cc(OC)cc3ccccc23)c2ccccc2c1` reads 590 nM.
